In patent publication US5849736A, “Isoxazoline and isoxazole fibrinogen receptor antagonists” (The DuPont Merck Pharmaceutical Company, priority 1995, dated 1998) one finds IC50 data, which are given here for 34 compounds.

Structures are written as SMILES. Counter-ions that a name gives are not always drawn. Where only a bound is given, the exact number is not on record here.

The subject of one assay is platelet aggregation in human platelet rich plasma (PRP). The assay is described as follows: Platelet Aggregation Assay (platelet rich plasma, with or without esterase pretreatment). The format is cell-based. To be noted: Platelet, preincubated with 100 IU/mL porcine liver esterase 2 hours at 37° C., 100 μM ADP, read-out: Platelet Aggregation Assay IC50 (with esterase). As for the experimental part: Venous blood was obtained from the arm of a healthy human donor who was drug-free and aspirin-free for at least two weeks prior to blood collection. Blood was collected into 10 mL citrated Vacutainer tubes. The blood was centrifuged for 15 minutes at 150×g at room temperature, and platelet-rich plasma (PRP) was removed. The remaining blood was centrifuged for 15 minutes at 1500×g at room temperature, and platelet-poor plasma (PPP) was removed. Samples were assayed on a aggregometer (PAP-4 Platelet Aggregation Profiler), using PPP as the blank (100% transmittance). 200 μL of PRP was added to each micro test tube, and transmittance was set to 0%. 20 μL of various agonists (ADP, collagen, arachidonate, epinephrine, thrombin) were added to each tube, and the aggregation profiles were plotted (% transmittance versus time). The results are expressed as % inhibition of agonist-induced platelet aggregation. For the IC50 evaluation, the test compounds were added at various concentrations prior to the activation of the platelets.
Ester prodrugs were preincubated (10^-3 M F.C.) with 100 IU/mL Porcine liver esterase (Sigma Chemical Co., St. Louis, Mo., #E-3128) for 2 hours at 37° C. Aliquots are then diluted in 0.1M Tris, pH 7.4, to the desired concentrations. Aliquots of 20 μl of the esterase pretreated prodrugs are added to 200 μl of human platelet rich plasma. Samples were placed in platelet profiler (aggregometer) for 8 minutes at 37° C., followed by the addition of 100 μM Adenosine Diphosphate, (Sigma Chemical Co., St. Louis, Mo., #A-6521), to induce platelet aggregation. Platelet aggregation was allowed to proceed for 5 minutes. Percent inhibition is calculated using percent aggregation in the presence of the test compound divided by percent aggregation of control, times 100. This value is subtracted from 100, yielding percent inhibition. Calculation of IC50 is performed on a Texas Instruments TI59 with an IC50 program.
Table A below sets forth the antiplatelet activity of representative compounds of the present invention. The indicated compounds were tested for their ability to inhibit platelet aggregation (using platelet rich plasma (PRP)). The IC50 value (the concentration of antagonist which inhibits platelet aggregation by 50% relative to a control lacking the antagonist) is shown. In Table 5 the IC50 values are expressed as: +++=IC50 of <10 μM; ++=IC50 of 10-50 μM; +=IC50 of 50-100 μM (μM=micromolar).
In general, IC50 refers to the concentration needed to halve the response being measured. Consider `COC(=O)CC(CSc1ccccc1)NC(=O)CC1CC(c2ccc(C(=N)N)cc2)=NO1` (racemic) [Example 350, Methyl 3(R,S)-N-(R,S)-{5-[3-(4-amidinophenyl)isoxazolin-5-ylacetyl]amino}-4-(phenylthio)butanoate hydrochloric acid salt], for which the IC50 was less than 10 µM. Still for that read-out and setting: for `COC(=O)CC(CNS(=O)(=O)c1ccccc1)NC(=O)CC1CC(c2ccc(C(=N)N)cc2)=NO1` (racemic) [Example 359, Methyl 3(R,S) -{5(R,S)-N-[3-(4-amidinophenyl)isoxazolin-5-ylacetyl]amino}-4-(phenylsulfonamido)butanoate . trifluoroacetic acid salt] the value was less than 10 µM; for `CCCCS(=O)(=O)NCC(CC(=O)OC)NC(=O)CC1CC(c2ccc(C(=N)N)cc2)=NO1` (racemic) [Example 362, Methyl 3(R,S)-{5(R,S)-N-[3-(4-amidinophenyl)isoxazolin-5-ylacetyl]amino}-4-(n-butylsulfonamido)butanoate . trifluoroacetic acid salt], less than 10 µM; for `COC(=O)CC(CC(=O)OC)NC(=O)CC1CC(c2ccc(C(=N)N)cc2)=NO1` (racemic) [Example 365, Methyl {5(R,S)-N-[3-(4-amidinophenyl)isoxazolin-5-ylacetyl]amino}-4-(methoxycarbonyl)butanoate . trifluoroacetic acid salt], less than 10 µM. For the compound `COC(=O)CCC(CC(=O)OC)NC(=O)CC1CC(c2ccc(C(=N)N)cc2)=NO1` (racemic) [Example 368, trifluoroacetic acid salt], the IC50 is less than 10 µM. The same measure, in the same setting: the value for `COC(=O)CC(NC(=O)CC1CC(c2ccc(C(=N)N)cc2)=NO1)c1ccccc1` (stereo not shown) [Example 89] was less than 10 µM; that for `CCC(CC(=O)OC)NC(=O)CC1CC(c2ccc(C(=N)N)cc2)=NO1` (stereo not shown) [Example 115] was less than 10 µM; that for `COC(=O)C[C@@H](CCc1ccccc1)NC(=O)CC1CC(c2ccc(C(=N)N)cc2)=NO1` (stereo partly drawn) [Example 120a, Methyl 3(R)-{5(R,S)-N-[3-(4-amidinophenyl)isoxazolin-5-ylacetyl]amino}-3-phenethylpropanoate] was less than 10 µM. Same read-out and setting: for `COC(=O)C[C@H](CCc1ccccc1)NC(=O)CC1CC(c2ccc(C(=N)N)cc2)=NO1` (stereo partly drawn) [Example 120b, Methyl 3(S)-{5(R,S)-N-[3-(4-amidinophenyl)isoxazolin-5-ylacetyl]amino}-3-phenethylpropanoate] the value was less than 10 µM. For the compound `CCOC(=O)CC(CN(C)C)NC(=O)CC1CC(c2ccc(C(=N)N)cc2)=NO1` (stereo not shown) [Example 166], the IC50 is less than 10 µM.

In the case of `N=C(N)c1ccc(C2=NOC(CC(=O)NC[C@H](N)C(=O)O)C2)cc1` (stereo partly drawn) [Example 275, N^3-[3-(4-amidinophenyl)isoxazolin-5(R,S)-ylacetyl]-L-2,3-diaminopropionic acid TFA salt], the IC50 is less than 10 µM. On to `N=C(N)c1ccc(C2=NOC(CC(=O)NC[C@H](NC(=O)OCc3ccccc3)C(=O)O)C2)cc1` (stereo partly drawn) [Example 276, N^2 -Cbz-N^3-[3-(4-amidinophenyl)isoxazolin-5(R, S) -ylacetyl]-L-2,3-diaminopropionic acid TFA salt], for which the IC50 was less than 10 µM. Same read-out and setting: the value for `CCCCOC(=O)N[C@@H](CNC(=O)CC1CC(c2ccc(C(=N)N)cc2)=NO1)C(=O)O` (stereo partly drawn) [Example 278, N^2-n-butyloxycarbonyl-N^3-[3-(4-amidinophenyl)isoxazolin-5(R, S)-ylacetyl]-L-2,3-diaminopropionic acid TFA salt] was less than 10 µM; that for `Cc1ccc(S(=O)(=O)NC(CNC(=O)CC2CC(c3ccc(C(=N)N)cc3)=NO2)C(=O)O)cc1` (stereo not shown) [Example 300] was less than 10 µM; that for `COC(=O)C(CNC(=O)CC1CC(c2ccc(C(=N)N)cc2)=NO1)NC(=O)OCc1ccccc1` (stereo not shown) [Example 312] was less than 10 µM.

Regarding `CCCCOC(=O)N[C@@H](CNC(=O)C[C@@H]1CC(c2ccc(C(=N)N)cc2)=NO1)C(=O)OC` [Example 314A, Methyl N^2-n-butyloxycarbonyl-N^3-[3-(4-amidinophenyl)isoxazolin-5(S)-ylacetyl]-(S)-2,3-diaminopropionate TFA salt], the 50% inhibitory concentration (IC50) was less than 10 µM.

Still in this assay, the particulars now being: Platelet, without esterase, given as a bound, not a class symbol, read-out: Platelet Aggregation Assay IC50 (without esterase).
Turning to `O=C(O)CC1CC(c2ccc(OCC3CCNCC3)cc2)=NO1` (racemic) [Example 7, 3-[4-(Piperidin-4-ylmethoxy)phenyl]-(5R,S)-isoxazolin-5-ylacetic Acid, Trifluoroacetic Acid Salt], the IC50 is greater than 100 µM. For `COC(=O)C1(CC(=O)O)CC(c2ccc(OCCC3CCNCC3)cc2)=NO1` (racemic) [Example 33, Trifluoroacetic Acid Salt], the concentration for half-maximal inhibition (IC50) is greater than 100 µM. On the same count and under the same terms, for `O=C(O)CCN1C(=O)CC2(CC(CCC3CCNCC3)=NO2)C1=O` (racemic) [Example 189, 5(R,S)-(2-Piperidin-4-ylethyl-8-(2-carboxyethyl)-1-oxa-2,8-diazaspiro[4.4]non-2-ene-7,9-dione] the value was greater than 100 µM.

Staying with this assay, now noted: Platelet, without esterase, read-out: Platelet Aggregation Assay IC50 (without esterase).
For `O=C(O)CC1CC(c2ccc(OCCC3CCNCC3)cc2)=NO1` (racemic) [Example 1, 3-(4-[2-Piperidin-4-yl)ethoxy]phenyl]-(5R,S)-isoxazolin-5-ylacetic Acid, Trifluoroacetic Acid Salt], the IC50 was less than 10 µM.

Consider `O=C(O)CCC1CC(c2ccc(OCC3CCNCC3)cc2)=NO1` (racemic) [Example 6, 3-(3-[4-(Piperidin-4-ylmethoxy)phenyl]-(5R,S)-isoxazolin-5-yl)propionic Acid, Trifluoroacetic Acid Salt], for which the IC50 is less than 10 µM. On the same count and under the same terms, for `O=C(O)CCC1CC(c2ccc(OCCC3CCNCC3)cc2)=NO1` (racemic) [Example 8, 3-[4-(2-Piperidin-4-yl)ethoxyphenyl]-(5R,S) -isoxazolin-5-ylpropionic Acid, Trifluoroacetic Acid Salt] the value was 50 to 100 µM; for `N=C(N)c1ccc(C2=NOC(CC(=O)NC(CC(=O)O)c3ccccc3)C2)cc1` (racemic) [Example 43, N-[3-(4-Amidinophenyl)isoxazolin-5(R,S)-ylacetyl]-(R,S)-3-amino-3-phenylpropanoic Acid], less than 10 µM.

For `N=C(N)c1ccc(C2=NOC(CC(=O)N3CCCCCC3CC(=O)O)C2)cc1` (racemic) [Example 377, 2-(R,S)-2-Carboxymethyl-1-{5-(R,S)-N-[3-(4-amidinophenyl)isoxazolin-5-ylacetyl]}azepine], the half-inhibitory concentration (IC50) was less than 10 µM. Same read-out and setting: for `COC(=O)CC1C(=O)NCCN1C(=O)CC1CC(c2ccc(C(=N)N)cc2)=NO1` (racemic) [Example 400, 3-(R,S)-(Methoxy-2-oxoethyl)-4-{5-(R,S)-N-[3-(4-amidinophenyl)isoxazolin-5-ylacetyl]}piperazin-2-one] the value was less than 10 µM. Same read-out and setting: for `O=C(N[C@H](C(=O)O)C1CC(c2ccc(OCCC3CCNCC3)cc2)=NO1)OCc1ccccc1` (single isomer, unassigned) [4 (isomer A)] the value was 10 to 50 µM.

As for `O=C(N[C@H](C(=O)O)C1CC(c2ccc(OCCC3CCNCC3)cc2)=NO1)OCc1ccccc1` (single isomer, unassigned) [4 (isomer B), Trifluoroacetic Acid Salt], the half-inhibitory concentration (IC50) fell in the range of 10 to 50 µM. Take `CCCCS(=O)(=O)NC(CC1CC(c2ccc(OCC3CCNCC3)cc2)=NO1)C(=O)O` (single isomer, unassigned) [9 (isomer A)]: the IC50 was less than 10 µM. The same measure, in the same setting: for `O=C(O)CCCN1C(=O)CC2(CC(CCC3CCNCC3)=NO2)C1=O` (stereo not shown) [Example 190] the value was 50 to 100 µM.

The assay is the same for the next values; noted with them: preincubated with 100 IU/mL porcine liver esterase 2 hours at 37° C., 100 μM ADP, read-out: Platelet Aggregation Assay IC50 (with esterase).
Regarding `COC(=O)C[C@@H](Cc1ccccc1)NC(=O)CC1CC(c2ccc(C(=N)N)cc2)=NO1` (stereo partly drawn) [119A (3R)], the 50% inhibitory concentration (IC50) is less than 10 µM.

Regarding `COC(=O)C[C@H](Cc1ccccc1)NC(=O)CC1CC(c2ccc(C(=N)N)cc2)=NO1` (stereo partly drawn) [119B (3S)], the IC50 was less than 10 µM. Still for that read-out and setting: the value for `COC(=O)C[C@@H](CCc1ccccc1)NC(=O)C[C@H]1CC(c2ccc(C(=N)N)cc2)=NO1` [120C (3R)] was less than 10 µM; that for `COC(=O)[C@H](CNC(=O)CC1CC(c2ccc(C(=N)N)cc2)=NO1)NS(=O)(=O)Cc1ccccc1` (stereo partly drawn) [328 (2S)] was less than 10 µM.

The assay is the same for the next values; noted with them: without esterase, read-out: Platelet Aggregation Assay IC50 (without esterase).
In the case of `CCCCS(=O)(=O)NC(CC1CC(c2ccc(OCC3CCNCC3)cc2)=NO1)C(=O)O` (single isomer, unassigned) [9 (isomer B), 3-(3-[4-{(Piperidin-4-yl)methoxy}phenyl]isoxazolin-5-yl{[butanesulfonyl]amino}]propionic Acid, Trifluoroacetic Acid Salt (Less Polar Diastereomer)], the IC50 is less than 10 µM.
